Experimental data from US10670605B2, “Cysteine reactive probes and uses thereof” (The Scripps Research Institute, priority 2015, dated 2020).
Blank lines part the entries; values can stand above or below the molecule they belong to.

Molecular target: T1, UBA7 C599 (P41226) (Homo sapiens, UniProt P41226)
T1 sequence (P41226 1-1012): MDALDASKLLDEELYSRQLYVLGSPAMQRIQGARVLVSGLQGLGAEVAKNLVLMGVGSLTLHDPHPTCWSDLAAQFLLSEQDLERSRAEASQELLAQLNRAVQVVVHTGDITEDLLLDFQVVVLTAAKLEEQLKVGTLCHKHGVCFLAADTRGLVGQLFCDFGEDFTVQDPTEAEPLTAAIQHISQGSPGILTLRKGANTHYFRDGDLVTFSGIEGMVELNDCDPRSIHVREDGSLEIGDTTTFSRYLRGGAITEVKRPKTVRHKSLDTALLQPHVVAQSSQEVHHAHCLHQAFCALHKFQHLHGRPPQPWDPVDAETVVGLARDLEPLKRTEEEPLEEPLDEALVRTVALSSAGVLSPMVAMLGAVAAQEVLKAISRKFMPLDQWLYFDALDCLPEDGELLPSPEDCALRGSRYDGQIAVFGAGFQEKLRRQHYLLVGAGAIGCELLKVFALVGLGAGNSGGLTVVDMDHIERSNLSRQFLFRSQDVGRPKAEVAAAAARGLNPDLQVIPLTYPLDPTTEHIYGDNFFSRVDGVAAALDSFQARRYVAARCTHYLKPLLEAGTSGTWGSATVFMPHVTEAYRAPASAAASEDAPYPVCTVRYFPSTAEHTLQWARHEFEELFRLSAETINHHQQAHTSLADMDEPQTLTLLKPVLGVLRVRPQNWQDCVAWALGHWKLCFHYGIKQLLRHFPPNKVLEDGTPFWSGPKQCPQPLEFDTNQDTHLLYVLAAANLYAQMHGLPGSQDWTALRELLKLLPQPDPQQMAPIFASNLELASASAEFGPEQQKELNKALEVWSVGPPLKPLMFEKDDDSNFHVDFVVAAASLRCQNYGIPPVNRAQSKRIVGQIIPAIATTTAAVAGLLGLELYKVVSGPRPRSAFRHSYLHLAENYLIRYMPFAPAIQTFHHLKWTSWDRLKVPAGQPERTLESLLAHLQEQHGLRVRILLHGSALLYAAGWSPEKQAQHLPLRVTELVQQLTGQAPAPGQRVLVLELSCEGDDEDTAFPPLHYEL
Assay: Competitive isoTOP-ABPP, cell lysates
Assay type: binding

SMILES: CC(C)CCOCCNC(=O)CCl [compound 27]
isoTOP-ABPP ratio (reactivity profile), P41226_C599 (500 μm in-vitro ramos): 1.3
isoTOP-ABPP ratio (reactivity profile), P41226_C599 (500 μm in-vitro ramos_231): 0.7

SMILES: O=C(CCl)NC12CC3CC(CC(C3)C1)C2 [compound 21]
isoTOP-ABPP ratio (reactivity profile), P41226_C599 (500 μm in-vitro ramos): 2.5

SMILES: O=C(CCl)Nc1ccccc1C1CCCCCC1 [compound 35]
isoTOP-ABPP reactivity ratio, P41226_C599 (500 μm, in-vitro_ramos): 1.2

SMILES: O=C(CCl)N1CCC(C(O)(c2ccccc2)c2ccccc2)CC1 [compound 20]
isoTOP-ABPP ratio (reactivity profile), P41226_C599 (500 μm in-vitro ramos): 12.2
isoTOP-ABPP ratio (reactivity profile), P41226_C599 (500 μm in-vitro ramos_231): 1.1

SMILES: COc1ccc(C2CC(c3cccs3)=NN2C(=O)CCl)cc1 (stereo not drawn) [compound 4]
R value (DMSO/fragment) (250 μM, in vitro, Ramos): 20.0

Continued, values first:

isoTOP-ABPP ratio, P41226_C599 (500 μM, invitro, ramos): 1.9
SMILES: Cn1cc(S(=O)(=O)N2CCOCC2)cc1C(=O)NC(=O)CCl [compound 11]

isoTOP-ABPP ratio (reactivity profile), P41226_C599 (500 μm in-vitro ramos): 3.2
SMILES: N#C/C(=C\c1cc(C(F)(F)F)cc(C(F)(F)F)c1)C(N)=O [compound 23]
